In US9187426B2, “Organic compounds” (Novartis AG, priority 2008, dated 2015):
Where a name gives a salt, the structure may show the parent alone.

## O=C(NCc1ccccn1)c1ccnc(N2CCN(Cc3ccc(F)cc3)C2=O)c1 (as salt: hydrochloride) [Example 15.3, 2-(3-(4-fluorobenzyl)-2-oxoimidazolidin-1-yl)-N-(pyridin-2-ylmethyl)isonicotinamide dihydrochloride]
  melting point: 141 to 143 °C

## O=C(NCc1ccc(C(F)(F)F)cc1)c1ccnc(NC(=O)c2ccccc2)c1 [Example 1, 2-benzamido-N-(4-(trifluoromethyl)benzyl)isonicotinamide]
  melting point: 165 to 168 °C

## Cc1ccc(CNC(=O)c2ccnc(NC(=O)c3ccccc3)c2)cc1 [Example 1.2, 2-benzamido-N-(4-methylbenzyl)isonicotinamide]
  melting point: 135 to 138 °C

## O=C(Nc1cc(-c2nc3ccccc3[nH]2)ccn1)c1ccccc1 [Example 4, N-(4-(1H-benzo[d]imidazol-2-yl)pyridin-2-yl)benzamide]
  melting point: 145 to 146 °C

## O=C(NCc1ccccc1)c1ccnc(NC(=O)c2ccccc2)c1 [Example 5, 2-benzamido-N-benzylisonicotinamide]
  melting point: 174 to 176 °C

## O=C(NCc1ccccc1)c1ccnc(NC(=O)c2ccc(OC(F)(F)F)cc2)c1 [Example 5.1, N-benzyl-2-(4-trifluoromethoxybenzoylamino)isonicotinamide]
  melting point: 151 to 153 °C

## O=C(NCc1ccccc1)c1ccnc(NC(=O)c2ccc(C(F)(F)F)cc2)c1 [Example 5.2, N-benzyl-2-(4-trifluoromethylbenzoylamino)isonicotinamide]
  melting point: 181 to 183 °C

## O=C(CCc1ccccc1)Nc1cc(C(=O)NCc2ccccc2)ccn1 [Example 5.3, N-benzyl-2-(3-phenylpropanamido)isonicotinamide]
  melting point: 177 to 179 °C

## O=C(NCc1ccccc1)c1ccnc(NC(=O)c2ccccc2F)c1 [Example 6, N-benzyl-2-(2-fluorobenzamido)isonicotinamide]
  melting point: 175 to 176 °C

## O=C(NCc1ccccc1)c1ccnc(NC(=O)c2cccc(F)c2)c1 [Example 6.1, N-benzyl-2-(3-fluorobenzamido)isonicotinamide]
  melting point: 140 to 143 °C

## O=C(NCc1ccccc1)c1ccnc(NC(=O)C2CCCC2)c1 [Example 6.2, N-benzyl-2-(cyclopentanecarboxamido)isonicotinamide]
  melting point: 55 to 57 °C

## O=C(NCc1ccccc1)c1ccnc(NC(=O)c2cccs2)c1 [Example 6.3, N-benzyl-2-(thiophene-2-carboxamido)isonicotinamide]
  melting point: 160 to 162 °C

## COc1ccc(C(=O)Nc2cc(C(=O)NCc3ccccc3)ccn2)cc1 [Example 6.5, N-benzyl-2-(4-methoxybenzamido)isonicotinamide]
  melting point: 165 to 166 °C

## COc1ccccc1C(=O)Nc1cc(C(=O)NCc2ccccc2)ccn1 [Example 6.6, N-benzyl-2-(2-methoxybenzamido)isonicotinamide]
  melting point: 205 to 207 °C

## O=C(NCc1ccccc1)c1ccnc(NC(=O)c2cccc3ccccc23)c1 [Example 6.7, 2-(1-naphthamido)-N-benzylisonicotinamide]
  melting point: 65 to 67 °C

## O=C(NCc1ccccc1)c1ccnc(NC(=O)c2cc(F)ccc2Cl)c1 [Example 6.9, N-benzyl-2-(2-chloro-5-fluorobenzamido)isonicotinamide]
  melting point: 180 to 181 °C

## N#Cc1ccc(C(=O)Nc2cc(C(=O)NCc3ccccc3)ccn2)cc1 [Example 6.10, N-benzyl-2-(4-cyanobenzamido)isonicotinamide]
  melting point: 180 to 181 °C

## CS(=O)(=O)c1cccc(C(=O)Nc2cc(C(=O)NCc3ccccc3)ccn2)c1 [Example 6.13, N-benzyl-2-(3-(methylsulfonyl)benzamido)isonicotinamide]
  melting point: 170 to 171 °C

## O=C(NCc1ccccc1)c1ccnc(NC(=O)c2ccc(F)cc2)c1 [Example 6.14, N-benzyl-2-(4-fluorobenzamido)isonicotinamide]
  melting point: 170 to 171 °C

## O=C(NCc1ccccc1)c1ccnc(NC(=O)c2cccc(C(F)(F)F)c2)c1 [Example 6.15, N-benzyl-2-(3-(trifluoromethyl)benzamido)isonicotinamide]
  melting point: 126 to 128 °C

## COc1cc(C(=O)NCc2ccccc2)cc(NC(=O)c2ccccc2)n1 [Example 6.17, 2-benzamido-N-benzyl-6-methoxyisonicotinamide]
  melting point: 132 to 133 °C

## O=C(NCc1ccccc1)c1cc[n+]([O-])c(NC(=O)c2ccccc2)c1 [Example 7, 2-benzamido-N-benzylisonicotinamide-1-N-oxide]
  melting point: 198 to 201 °C

## O=C(NCc1ccccc1)c1cc(O)nc(NC(=O)c2ccccc2)c1 [Example 8, 2-benzamido-N-benzyl-6-hydroxyisonicotinamide]
  melting point: 257 °C (dec.)

## Cc1c[nH]c(-c2ccnc(NC(=O)c3ccccc3)c2)n1 [Example 10, N-(4-(4-methyl-1H-imidazol-2-yl)pyridin-2-yl)benzamide]
  melting point: 133 to 135 °C

## CCCc1c[nH]c(-c2ccnc(NC(=O)c3ccccc3)c2)n1 [Example 10.1, N-(4-(4-propyl-1H-imidazol-2-yl)pyridin-2-yl)benzamide]
  melting point: 95 to 97 °C

## CC(C)Cc1c[nH]c(-c2ccnc(NC(=O)c3ccccc3)c2)n1 [Example 10.3, N-(4-(4-isobutyl-1H-imidazol-2-yl)pyridin-2-yl)benzamide]
  melting point: 103 to 105 °C

## O=C(Nc1cc(-c2nc(-c3ccccc3)c[nH]2)ccn1)c1ccccc1 [Example 10.5, N-(4-(4-phenyl-1H-imidazol-2-yl)pyridin-2-yl)benzamide]
  melting point: 265 to 267 °C

## O=C(Nc1cc(-c2nnc(-c3ccccc3)o2)ccn1)c1ccccc1 [Example 11, N-(4-(5-phenyl-1,3,4-oxadiazol-2-yl)pyridin-2-yl)benzamide]
  melting point: 151 to 155 °C

## O=C(Nc1cc(-c2nnc(Cc3ccccc3)o2)ccn1)c1ccccc1 [Example 11.1, N-[4-(5-benzyl-[1,3,4]oxadiazol-2-yl)-pyridin-2-yl]benzamide]
  melting point: 187 to 189 °C

## O=C(Nc1cc(-c2nc(Cc3ccccc3)no2)ccn1)c1ccccc1 [Example 12, N-[4-(3-benzyl-[1,2,4]oxadiazol-5-yl)-pyridin-2-yl]benzamide]
  melting point: 150 to 151 °C

## CNC(=O)c1ccnc(N2CCN(Cc3ccc(F)cc3)C2=O)c1 [Example 13, 2-(3-(4-fluorobenzyl)-2-oxoimidazolidin-1-yl)-N-methylisonicotinamide]
  melting point: 118 to 120 °C

## O=C(NCc1cncs1)c1ccnc(N2CCN(Cc3ccc(F)cc3)C2=O)c1 [Example 14.1, 2-(3-(4-fluorobenzyl)-2-oxoimidazolidin-1-yl)-N-(thiazol-5-ylmethyl)isonicotinamide]
  melting point: 148 to 150 °C

## O=C(NCc1nccs1)c1ccnc(N2CCN(Cc3ccc(F)cc3)C2=O)c1 [Example 14.3, 2-(3-(4-fluorobenzyl)-2-oxoimidazolidin-1-yl)-N-(thiazol-2-ylmethyl)isonicotinamide]
  melting point: 123 to 125 °C

## O=C(NCc1ncco1)c1ccnc(N2CCN(Cc3ccc(F)cc3)C2=O)c1 [Example 14.4, 2-(3-(4-fluorobenzyl)-2-oxoimidazolidin-1-yl)-N-(oxazol-2-ylmethyl)isonicotinamide]
  melting point: 148 to 150 °C

## Cn1ccc(CNC(=O)c2ccnc(N3CCN(Cc4ccc(F)cc4)C3=O)c2)n1 [Example 14.6, 2-(3-(4-fluorobenzyl)-2-oxoimidazolidin-1-yl)-N-((1-methyl-1H-pyrazol-3-yl)methyl)isonicotinamide]
  melting point: 79 to 81 °C

## Cc1nn(C)c(C)c1CNC(=O)c1ccnc(N2CCN(Cc3ccc(F)cc3)C2=O)c1 [Example 14.7, 2-(3-(4-fluorobenzyl)-2-oxoimidazolidin-1-yl)-N-((1,3,5-trimethyl-1H-pyrazol-4-yl)methyl)isonicotinamide]
  melting point: 179 to 181 °C

## Cn1cc(CNC(=O)c2ccnc(N3CCN(Cc4ccc(F)cc4)C3=O)c2)cn1 [Example 14.8, 2-(3-(4-fluorobenzyl)-2-oxoimidazolidin-1-yl)-N-((1-methyl-1H-pyrazol-4-yl)methyl)isonicotinamide]
  melting point: 165 to 166 °C

## O=C(NCc1cc[nH]n1)c1ccnc(N2CCN(Cc3ccc(F)cc3)C2=O)c1 [Example 14.9, N-((1H-pyrazol-3-yl)methyl)-2-(3-(4-fluorobenzyl)-2-oxoimidazolidin-1-yl)isonicotinamide]
  melting point: 178 to 180 °C

## Cc1cc(CNC(=O)c2ccnc(N3CCN(Cc4ccc(F)cc4)C3=O)c2)nn1C [Example 14.11, N-((1,5-dimethyl-1H-pyrazol-3-yl)methyl)-2-(3-(4-fluorobenzyl)-2-oxoimidazolidin-1-yl)isonicotinamide]
  melting point: 150 to 152 °C

## O=C(NC[C@H](O)c1ccccc1)c1ccnc(N2CCN(Cc3ccc(F)cc3)C2=O)c1 [Example 14.12, (R)-2-(3-(4-fluorobenzyl)-2-oxoimidazolidin-1-yl)-N-(2-hydroxy-2-phenylethyl)isonicotinamide]
  melting point: 97 to 99 °C

## Cc1nc(CNC(=O)c2ccnc(N3CCN(Cc4ccc(F)cc4)C3=O)c2)cs1 [Example 14.13, 2-(3-(4-fluorobenzyl)-2-oxoimidazolidin-1-yl)-N-((2-methylthiazol-4-yl)methyl)isonicotinamide]
  melting point: 76 to 78 °C

## O=C(NCc1ccon1)c1ccnc(N2CCN(Cc3ccc(F)cc3)C2=O)c1 [Example 14.14, 2-(3-(4-fluorobenzyl)-2-oxoimidazolidin-1-yl)-N-(isoxazol-3-ylmethyl)isonicotinamide]
  melting point: 127 to 129 °C

## O=C(NCc1csc(C(F)(F)F)n1)c1ccnc(N2CCN(Cc3ccc(F)cc3)C2=O)c1 [Example 14.15, 2-(3-(4-fluorobenzyl)-2-oxoimidazolidin-1-yl)-N-((2-(trifluoromethyl)thiazol-4-yl)methyl)isonicotinamide]
  melting point: 66 to 68 °C

## Cc1nc(-c2ccccc2)sc1CNC(=O)c1ccnc(N2CCN(Cc3ccc(F)cc3)C2=O)c1 [Example 14.16, 2-(3-(4-fluorobenzyl)-2-oxoimidazolidin-1-yl)-N-((4-methyl-2-phenylthiazol-5-yl)methyl)isonicotinamide]
  melting point: 182 to 184 °C

## O=C(NCc1ccccc1)c1ccnc(N2CCN(Cc3ccc(F)cc3)C2=O)c1 [Example 15, N-benzyl-2-(3-(4-fluorobenzyl)-2-oxoimidazolidin-1-yl)isonicotinamide]
  melting point: 167 to 169 °C
